The NIST ThermoML archive (doi:10.1016/j.jct.2005.03.020)
Numbers after ± are expanded uncertainties.

How the values were obtained:
[1] = excess molar enthalpy (molar enthalpy of mixing); xn = mol fraction of the nth substance listed; conditions: 298.15 K, 101.33 kPa, Liquid
[2] = xn = mol fraction of the nth substance listed; conditions: 298.15 K, 101.33 kPa, Liquid
[3] = refractive index (Na D-line) (dimensionless); conditions: 298.15 K; 101.33 kPa; Liquid; Standard Abbe refractometry
[4] = 298.15 K; 101.33 kPa; Liquid

ClCCCCCl [1,4-dichlorobutane] + CCCC(=O)OCC
Conditions | excess molar enthalpy, [1] [kcal/mol] | mass density, [2] [kg/m3]
x2 = 0.0516 | -0.00502 ± 0.000454 | 1117.97 ± 0.75
x2 = 0.1009 | – | 1103.15 ± 0.75
x2 = 0.1108 | -0.0127 ± 0.000574 | –
x2 = 0.1531 | – | 1087.78 ± 0.75
x2 = 0.172 | -0.0208 ± 0.000693 | –
x2 = 0.2042 | – | 1072.99 ± 0.75
x2 = 0.2328 | -0.0297 ± 0.000837 | –
x2 = 0.2583 | – | 1057.63 ± 0.75
x2 = 0.2891 | -0.0397 ± 0.00098 | –
x2 = 0.3128 | – | 1042.49 ± 0.75
x2 = 0.3455 | -0.0467 ± 0.0011 | –
x2 = 0.3701 | – | 1026.87 ± 0.76
x2 = 0.3976 | -0.053 ± 0.0012 | –
x2 = 0.4267 | – | 1011.74 ± 0.76
x2 = 0.4477 | -0.0578 ± 0.00127 | –
x2 = 0.4757 | -0.0598 ± 0.00129 | –
x2 = 0.5265 | -0.0616 ± 0.00131 | –
x2 = 0.5437 | – | 981.4 ± 0.8
x2 = 0.5821 | -0.0614 ± 0.00131 | –
x2 = 0.6058 | – | 965.8 ± 0.83
x2 = 0.6443 | -0.0597 ± 0.00129 | –
x2 = 0.6681 | – | 950.44 ± 0.86
x2 = 0.7111 | -0.0554 ± 0.00122 | –
x2 = 0.7293 | – | 935.66 ± 0.89
x2 = 0.7821 | -0.0468 ± 0.0011 | –
x2 = 0.8567 | -0.0343 ± 0.000908 | –
x2 = 0.8601 | – | 905.05 ± 0.95
x2 = 0.9259 | – | 890.1 ± 0.98
x2 = 0.9323 | -0.0189 ± 0.000669 | –

ClCCCCCl [1,4-dichlorobutane]
Conditions | mass density [kg/m3] | refractive index
[3] | – | 1.452 ± 0.0008
[4] | 1133.32 ± 0.72 | –

CCOC=O [ethyl methanoate]
Conditions | mass density [kg/m3] | refractive index
[3] | – | 1.358 ± 0.0009
[4] | 914.17 ± 1.6 | –

CCOC(C)=O [ethyl acetate]
Conditions | mass density [kg/m3] | refractive index
[3] | – | 1.3692 ± 0.0007
[4] | 894.33 ± 0.3 | –

ClCCCCCCl [1,5-dichloropentane]
Conditions | mass density [kg/m3] | refractive index
[3] | – | 1.454 ± 0.0008
[4] | 1095.27 ± 0.66 | –

CCCCC(=O)OCC [ethyl pentanoate] + ClCCCCl
Conditions | excess molar enthalpy [kcal/mol] | mass density [kg/m3]
[1], x2 = 0.0493 | -0.00743 ± 0.000478 | –
[1], x2 = 0.0986 | -0.0147 ± 0.000598 | –
[1], x2 = 0.1536 | -0.0238 ± 0.000741 | –
[1], x2 = 0.2082 | -0.0333 ± 0.000884 | –
[1], x2 = 0.261 | -0.0426 ± 0.00103 | –
[1], x2 = 0.3126 | -0.052 ± 0.00117 | –
[1], x2 = 0.3627 | -0.061 ± 0.00131 | –
[1], x2 = 0.4084 | -0.066 ± 0.00139 | –
[1], x2 = 0.4405 | -0.0697 ± 0.00146 | –
[1], x2 = 0.4492 | -0.0707 ± 0.00146 | –
[1], x2 = 0.5044 | -0.0725 ± 0.00151 | –
[1], x2 = 0.5692 | -0.0725 ± 0.00148 | –
[1], x2 = 0.6438 | -0.0687 ± 0.00143 | –
[1], x2 = 0.7284 | -0.0593 ± 0.00129 | –
[1], x2 = 0.8181 | -0.0439 ± 0.00105 | –
[1], x2 = 0.9124 | -0.0246 ± 0.000765 | –
[2], x1 = 0.0395 | – | 1159.55 ± 0.81
[2], x1 = 0.0785 | – | 1141.75 ± 0.78
[2], x1 = 0.1207 | – | 1123.43 ± 0.74
[2], x1 = 0.1642 | – | 1105.29 ± 0.71
[2], x1 = 0.2098 | – | 1087.19 ± 0.68
[2], x1 = 0.2576 | – | 1069.12 ± 0.64
[2], x1 = 0.3081 | – | 1050.97 ± 0.61
[2], x1 = 0.3623 | – | 1032.41 ± 0.59
[2], x1 = 0.4179 | – | 1014.41 ± 0.56
[2], x1 = 0.4804 | – | 995.25 ± 0.54
[2], x1 = 0.538 | – | 978.58 ± 0.55
[2], x1 = 0.6036 | – | 960.5 ± 0.56
[2], x1 = 0.744 | – | 925.06 ± 0.59
[2], x1 = 0.8249 | – | 906.38 ± 0.61
[2], x1 = 0.9085 | – | 888.3 ± 0.63

ClCCCCCCCl [1,6-dichlorohexane] + CCCC(=O)OCC
Conditions | excess molar enthalpy [kcal/mol] | mass density [kg/m3]
[1], x2 = 0.051 | -0.000789 ± 0.000382 | –
[1], x2 = 0.1085 | -0.0022 ± 0.000406 | –
[1], x2 = 0.1746 | -0.00564 ± 0.000454 | –
[1], x2 = 0.2423 | -0.0101 ± 0.000526 | –
[1], x2 = 0.3076 | -0.0158 ± 0.000621 | –
[1], x2 = 0.3688 | -0.0202 ± 0.000693 | –
[1], x2 = 0.4325 | -0.0254 ± 0.000765 | –
[1], x2 = 0.4782 | -0.0283 ± 0.000813 | –
[1], x2 = 0.525 | -0.0321 ± 0.00086 | –
[1], x2 = 0.5779 | -0.0341 ± 0.000908 | –
[1], x2 = 0.6383 | -0.0346 ± 0.000908 | –
[1], x2 = 0.7034 | -0.0313 ± 0.00086 | –
[1], x2 = 0.7744 | -0.0254 ± 0.000765 | –
[1], x2 = 0.8524 | -0.0179 ± 0.000645 | –
[1], x2 = 0.9323 | -0.00949 ± 0.000526 | –
[2], x2 = 0.0651 | – | 1052.45 ± 1.1
[2], x2 = 0.1277 | – | 1041.56 ± 1.1
[2], x2 = 0.1889 | – | 1030.69 ± 1.1
[2], x2 = 0.2509 | – | 1019.59 ± 1.1
[2], x2 = 0.3119 | – | 1008.53 ± 1.1
[2], x2 = 0.3711 | – | 997.66 ± 1
[2], x2 = 0.4384 | – | 985.13 ± 1
[2], x2 = 0.4971 | – | 974.07 ± 1
[2], x2 = 0.5548 | – | 963.05 ± 1
[2], x2 = 0.6131 | – | 951.77 ± 1
[2], x2 = 0.67 | – | 940.63 ± 1
[2], x2 = 0.7263 | – | 929.48 ± 1
[2], x2 = 0.7824 | – | 918.28 ± 1
[2], x2 = 0.8369 | – | 907.25 ± 1
[2], x2 = 0.8922 | – | 895.96 ± 1
[2], x2 = 0.9457 | – | 884.85 ± 1

CCCCC(=O)OCC [ethyl pentanoate] + ClCCCCCl
Conditions | excess molar enthalpy [kcal/mol] | mass density [kg/m3]
[1], x2 = 0.0443 | -0.00368 ± 0.00043 | –
[1], x2 = 0.0938 | -0.00985 ± 0.000526 | –
[1], x2 = 0.1472 | -0.0156 ± 0.000621 | –
[1], x2 = 0.2021 | -0.0229 ± 0.000717 | –
[1], x2 = 0.2576 | -0.0317 ± 0.00086 | –
[1], x2 = 0.3103 | -0.04 ± 0.001 | –
[1], x2 = 0.3615 | -0.0492 ± 0.00112 | –
[1], x2 = 0.4093 | -0.0553 ± 0.00122 | –
[1], x2 = 0.4542 | -0.0607 ± 0.00131 | –
[1], x2 = 0.4637 | -0.062 ± 0.00134 | –
[1], x2 = 0.5038 | -0.0642 ± 0.00136 | –
[1], x2 = 0.5509 | -0.0653 ± 0.00139 | –
[1], x2 = 0.6143 | -0.0639 ± 0.00136 | –
[1], x2 = 0.6866 | -0.0592 ± 0.00129 | –
[1], x2 = 0.7631 | -0.0504 ± 0.00115 | –
[1], x2 = 0.8429 | -0.0372 ± 0.000956 | –
[1], x2 = 0.9262 | -0.0202 ± 0.000693 | –
[2], x1 = 0.0426 | – | 1118.97 ± 0.73
[2], x1 = 0.0881 | – | 1103.57 ± 0.7
[2], x1 = 0.1345 | – | 1088.34 ± 0.68
[2], x1 = 0.1844 | – | 1072.46 ± 0.65
[2], x1 = 0.2407 | – | 1055.13 ± 0.62
[2], x1 = 0.2932 | – | 1039.54 ± 0.6
[2], x1 = 0.3462 | – | 1024.28 ± 0.57
[2], x1 = 0.4021 | – | 1008.72 ± 0.55
[2], x1 = 0.4541 | – | 994.67 ± 0.54
[2], x1 = 0.5187 | – | 977.83 ± 0.55
[2], x1 = 0.5829 | – | 961.7 ± 0.56
[2], x1 = 0.6452 | – | 946.59 ± 0.57
[2], x1 = 0.7045 | – | 932.66 ± 0.58
[2], x1 = 0.7796 | – | 915.67 ± 0.6
[2], x1 = 0.8521 | – | 899.89 ± 0.62
[2], x1 = 0.925 | – | 884.57 ± 0.64
